In publication PMC6704710, “Preclinical evaluation of 3D185, a novel potent inhibitor of FGFR1/2/3 and CSF-1R, in FGFR-dependent and macrophage-dominant cancer models” (Journal of Experimental & Clinical Cancer Research : CR, 2019):

Legend:
Assay in all cases: Eurofins kinase panel
Type in all cases: biochemical
Settings in all cases: read-out: Inhibition rate (%)
CLIK1(h) = target: T1, CLIK1(h) (Homo sapiens, UniProt Q8TDR2)
T1 construct: purchased Eurofins (KinaseProfiler)

DRAK2(h) = target: T2, DRAK2(h) (Homo sapiens, UniProt O94768)
T2 construct: purchased Eurofins (KinaseProfiler)
T2 sequence (O94768 1-372): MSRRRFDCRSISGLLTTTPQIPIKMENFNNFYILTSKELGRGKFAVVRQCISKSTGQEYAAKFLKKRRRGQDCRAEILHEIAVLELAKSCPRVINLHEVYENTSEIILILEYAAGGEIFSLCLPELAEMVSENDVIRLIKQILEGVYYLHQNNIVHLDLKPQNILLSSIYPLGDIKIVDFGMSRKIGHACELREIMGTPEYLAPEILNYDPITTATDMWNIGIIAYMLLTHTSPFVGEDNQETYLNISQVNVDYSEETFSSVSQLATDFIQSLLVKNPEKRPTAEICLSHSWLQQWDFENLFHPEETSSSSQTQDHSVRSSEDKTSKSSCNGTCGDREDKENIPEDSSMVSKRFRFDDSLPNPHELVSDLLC

IGF-1R(h) = target: T3, IGF-1R(h) (Homo sapiens, UniProt P08069)
T3 construct: purchased Eurofins (KinaseProfiler)

MAK(h) = target: T4, MAK(h) (Homo sapiens, UniProt P20794)
T4 construct: purchased Eurofins (KinaseProfiler)
T4 sequence (P20794 1-623): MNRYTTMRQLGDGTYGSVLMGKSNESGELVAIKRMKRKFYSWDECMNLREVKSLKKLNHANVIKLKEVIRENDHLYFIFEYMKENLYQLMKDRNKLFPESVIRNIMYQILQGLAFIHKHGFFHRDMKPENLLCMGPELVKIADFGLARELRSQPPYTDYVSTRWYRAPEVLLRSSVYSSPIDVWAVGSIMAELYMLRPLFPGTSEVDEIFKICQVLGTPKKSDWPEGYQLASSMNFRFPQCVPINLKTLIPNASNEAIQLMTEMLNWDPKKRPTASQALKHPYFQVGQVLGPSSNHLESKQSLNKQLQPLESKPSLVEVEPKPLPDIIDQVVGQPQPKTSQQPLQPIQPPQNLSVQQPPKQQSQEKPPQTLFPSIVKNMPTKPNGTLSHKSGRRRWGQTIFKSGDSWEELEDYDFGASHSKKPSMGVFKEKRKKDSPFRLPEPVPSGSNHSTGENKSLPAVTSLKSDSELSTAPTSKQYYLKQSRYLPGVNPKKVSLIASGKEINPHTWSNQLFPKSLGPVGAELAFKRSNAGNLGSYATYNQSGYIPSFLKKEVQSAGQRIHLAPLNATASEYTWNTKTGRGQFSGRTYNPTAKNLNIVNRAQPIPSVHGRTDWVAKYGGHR

MRCKβ(h) = target: T5, MRCKβ(h) (Homo sapiens, UniProt Q9Y5S2)
T5 construct: purchased Eurofins (KinaseProfiler)

PAR-1Bα(h) = target: T6, PAR-1Bα(h) (Homo sapiens, UniProt Q7KZI7)
T6 construct: purchased Eurofins (KinaseProfiler)

PI3KC2α(h) = target: T7, PI3KC2α(h) (Homo sapiens, UniProt O00443)
T7 construct: purchased Eurofins (KinaseProfiler)

Ret(h) = target: T8, Ret(h) (Homo sapiens, UniProt P07949)
T8 construct: purchased Eurofins (KinaseProfiler)

eEF-2K(h) = target: T9, eEF-2K(h) (Homo sapiens, UniProt O00418)
T9 construct: purchased Eurofins (KinaseProfiler)
T9 sequence (O00418 1-725): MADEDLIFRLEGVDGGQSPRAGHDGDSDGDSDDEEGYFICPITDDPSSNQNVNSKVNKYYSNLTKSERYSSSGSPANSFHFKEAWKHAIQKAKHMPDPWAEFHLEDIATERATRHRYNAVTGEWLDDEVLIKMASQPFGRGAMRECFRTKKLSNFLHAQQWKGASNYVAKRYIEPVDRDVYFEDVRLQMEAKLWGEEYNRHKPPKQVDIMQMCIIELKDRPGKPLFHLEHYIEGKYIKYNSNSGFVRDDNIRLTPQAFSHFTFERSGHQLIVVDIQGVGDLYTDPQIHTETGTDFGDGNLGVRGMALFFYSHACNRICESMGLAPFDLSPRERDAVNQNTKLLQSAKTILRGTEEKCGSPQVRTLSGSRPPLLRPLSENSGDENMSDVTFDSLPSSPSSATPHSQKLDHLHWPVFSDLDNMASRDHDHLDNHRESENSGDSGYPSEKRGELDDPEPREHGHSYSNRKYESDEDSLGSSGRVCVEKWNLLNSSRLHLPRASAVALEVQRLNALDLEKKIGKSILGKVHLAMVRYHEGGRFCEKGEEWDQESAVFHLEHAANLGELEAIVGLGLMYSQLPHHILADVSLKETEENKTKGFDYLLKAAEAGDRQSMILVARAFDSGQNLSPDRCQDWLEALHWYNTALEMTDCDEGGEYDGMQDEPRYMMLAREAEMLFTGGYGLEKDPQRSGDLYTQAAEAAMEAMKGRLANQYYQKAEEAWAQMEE

T3 sequence (P08069 31-1367): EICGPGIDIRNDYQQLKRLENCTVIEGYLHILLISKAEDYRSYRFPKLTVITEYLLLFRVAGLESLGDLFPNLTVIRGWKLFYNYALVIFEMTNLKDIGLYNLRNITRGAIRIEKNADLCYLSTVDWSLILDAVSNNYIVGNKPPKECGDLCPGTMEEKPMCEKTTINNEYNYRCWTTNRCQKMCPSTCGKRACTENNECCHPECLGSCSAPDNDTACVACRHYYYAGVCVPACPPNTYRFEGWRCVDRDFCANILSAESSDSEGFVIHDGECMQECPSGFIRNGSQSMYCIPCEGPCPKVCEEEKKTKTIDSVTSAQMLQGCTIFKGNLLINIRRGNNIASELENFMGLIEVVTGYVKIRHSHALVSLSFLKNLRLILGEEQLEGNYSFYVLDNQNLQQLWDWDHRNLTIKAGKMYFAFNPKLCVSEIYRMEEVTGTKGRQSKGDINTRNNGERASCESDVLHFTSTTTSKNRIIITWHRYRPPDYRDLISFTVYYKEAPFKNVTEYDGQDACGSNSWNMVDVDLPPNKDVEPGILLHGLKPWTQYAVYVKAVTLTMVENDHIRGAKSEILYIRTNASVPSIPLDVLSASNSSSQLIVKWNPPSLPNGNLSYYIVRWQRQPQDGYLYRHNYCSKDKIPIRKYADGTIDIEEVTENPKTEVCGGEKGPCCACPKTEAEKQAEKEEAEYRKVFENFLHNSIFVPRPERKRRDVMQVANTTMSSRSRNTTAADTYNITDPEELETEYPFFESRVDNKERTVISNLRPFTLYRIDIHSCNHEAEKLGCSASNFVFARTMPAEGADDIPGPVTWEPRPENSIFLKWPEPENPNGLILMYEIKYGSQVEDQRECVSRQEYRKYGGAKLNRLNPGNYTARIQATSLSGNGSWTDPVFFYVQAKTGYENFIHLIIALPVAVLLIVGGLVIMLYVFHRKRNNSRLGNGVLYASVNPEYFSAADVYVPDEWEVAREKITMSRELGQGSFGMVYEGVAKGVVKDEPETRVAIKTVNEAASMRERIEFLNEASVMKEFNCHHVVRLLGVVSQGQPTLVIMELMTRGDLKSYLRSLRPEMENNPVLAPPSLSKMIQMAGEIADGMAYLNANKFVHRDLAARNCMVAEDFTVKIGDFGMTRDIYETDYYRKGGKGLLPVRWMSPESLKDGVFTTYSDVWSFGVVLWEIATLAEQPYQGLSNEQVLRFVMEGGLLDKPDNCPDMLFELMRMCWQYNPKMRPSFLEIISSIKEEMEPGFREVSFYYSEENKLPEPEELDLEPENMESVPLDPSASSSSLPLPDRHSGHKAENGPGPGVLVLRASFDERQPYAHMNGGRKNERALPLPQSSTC
T1 sequence (Q8TDR2 whole entry): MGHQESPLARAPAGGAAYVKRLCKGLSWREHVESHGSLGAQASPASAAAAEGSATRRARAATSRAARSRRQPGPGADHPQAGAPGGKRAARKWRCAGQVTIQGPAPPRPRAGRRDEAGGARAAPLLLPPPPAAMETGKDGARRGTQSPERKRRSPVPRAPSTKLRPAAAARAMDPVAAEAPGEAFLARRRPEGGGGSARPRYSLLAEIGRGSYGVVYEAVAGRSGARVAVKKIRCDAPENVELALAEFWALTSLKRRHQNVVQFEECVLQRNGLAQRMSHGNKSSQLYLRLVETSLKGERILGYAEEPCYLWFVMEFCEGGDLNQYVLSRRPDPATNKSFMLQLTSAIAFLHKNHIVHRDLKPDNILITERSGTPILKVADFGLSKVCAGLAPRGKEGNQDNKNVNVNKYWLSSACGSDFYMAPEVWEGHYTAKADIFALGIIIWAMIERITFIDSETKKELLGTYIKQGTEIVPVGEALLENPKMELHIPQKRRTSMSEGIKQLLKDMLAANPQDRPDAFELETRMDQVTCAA
T6 sequence (Q7KZI7 1-725 isoform Q7KZI7-4): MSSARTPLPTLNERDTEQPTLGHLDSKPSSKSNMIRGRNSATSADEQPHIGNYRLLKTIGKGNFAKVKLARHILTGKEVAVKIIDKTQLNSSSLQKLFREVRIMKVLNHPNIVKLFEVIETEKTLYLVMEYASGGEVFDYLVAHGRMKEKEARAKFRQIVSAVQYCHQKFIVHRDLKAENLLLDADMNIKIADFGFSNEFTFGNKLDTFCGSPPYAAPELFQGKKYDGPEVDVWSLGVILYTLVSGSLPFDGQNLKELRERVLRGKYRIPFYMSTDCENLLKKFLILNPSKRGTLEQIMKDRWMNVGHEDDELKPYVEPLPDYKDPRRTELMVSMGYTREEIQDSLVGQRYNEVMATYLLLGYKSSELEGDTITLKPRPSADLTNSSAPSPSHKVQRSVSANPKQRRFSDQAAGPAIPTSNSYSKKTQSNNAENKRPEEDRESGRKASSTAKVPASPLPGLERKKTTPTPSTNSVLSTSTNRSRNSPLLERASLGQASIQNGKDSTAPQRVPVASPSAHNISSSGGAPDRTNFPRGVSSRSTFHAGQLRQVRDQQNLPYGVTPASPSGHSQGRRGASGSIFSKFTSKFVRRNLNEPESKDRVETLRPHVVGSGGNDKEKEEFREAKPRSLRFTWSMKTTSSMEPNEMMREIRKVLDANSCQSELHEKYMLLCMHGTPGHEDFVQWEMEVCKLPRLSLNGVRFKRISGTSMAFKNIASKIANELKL
T8 sequence (P07949 29-1114): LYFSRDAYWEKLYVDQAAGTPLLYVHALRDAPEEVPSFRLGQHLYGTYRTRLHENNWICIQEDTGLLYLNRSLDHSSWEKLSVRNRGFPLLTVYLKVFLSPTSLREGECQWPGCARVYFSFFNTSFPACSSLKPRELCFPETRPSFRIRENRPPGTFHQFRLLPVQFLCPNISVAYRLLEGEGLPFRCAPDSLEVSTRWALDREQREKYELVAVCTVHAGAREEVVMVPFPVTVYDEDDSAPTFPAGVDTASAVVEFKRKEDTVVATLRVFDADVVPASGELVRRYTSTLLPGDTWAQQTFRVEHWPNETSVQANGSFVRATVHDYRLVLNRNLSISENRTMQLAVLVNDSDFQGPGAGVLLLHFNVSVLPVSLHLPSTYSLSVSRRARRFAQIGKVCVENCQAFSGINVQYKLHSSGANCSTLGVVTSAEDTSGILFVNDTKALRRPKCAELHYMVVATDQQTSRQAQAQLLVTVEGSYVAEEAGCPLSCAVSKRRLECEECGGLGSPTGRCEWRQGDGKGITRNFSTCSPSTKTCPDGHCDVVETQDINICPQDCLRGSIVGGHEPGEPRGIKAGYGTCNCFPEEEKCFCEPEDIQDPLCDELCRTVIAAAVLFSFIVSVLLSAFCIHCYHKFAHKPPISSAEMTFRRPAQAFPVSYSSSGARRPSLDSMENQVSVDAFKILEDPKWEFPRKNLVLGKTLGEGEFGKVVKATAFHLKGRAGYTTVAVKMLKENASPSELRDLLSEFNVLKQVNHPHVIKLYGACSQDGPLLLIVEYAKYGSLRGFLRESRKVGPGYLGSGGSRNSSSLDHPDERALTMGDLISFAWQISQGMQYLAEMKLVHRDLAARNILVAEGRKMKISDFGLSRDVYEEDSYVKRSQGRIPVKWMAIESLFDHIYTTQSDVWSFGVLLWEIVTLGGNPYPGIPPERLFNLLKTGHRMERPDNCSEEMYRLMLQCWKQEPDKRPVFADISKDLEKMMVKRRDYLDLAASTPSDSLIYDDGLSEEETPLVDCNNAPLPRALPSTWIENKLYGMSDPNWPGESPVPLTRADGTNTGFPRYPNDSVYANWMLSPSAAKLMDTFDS

`COc1cc(OC)c(Cl)c(-c2ccc3c(NC(=O)c4ccc(N5CCNC(C)(C)C5)cc4)n[nH]c3n2)c1Cl` [3D185] gave an inhibition at 0.01 µM (CLIK1(h); 10 nM) of 0%, an inhibition at 0.1 µM (CLIK1(h); 100 nM) of -1% and an inhibition at 1 µM (CLIK1(h); 1000 nM) of 12%. It also gave an inhibition at 0.01 µM (DRAK2(h); 10 nM) of -5%, an inhibition at 0.1 µM (DRAK2(h); 100 nM) of -13% and an inhibition at 1 µM (DRAK2(h); 1000 nM) of 3%. The inhibition at 0.01 µM (IGF-1R(h); 10 nM) was -5%, the inhibition at 0.1 µM (IGF-1R(h); 100 nM) was 54% and the inhibition at 1 µM (IGF-1R(h); 1000 nM) was 88%. The inhibition at 0.01 µM (MAK(h); 10 nM) was -1%, the inhibition at 0.1 µM (MAK(h); 100 nM) was -9% and the inhibition at 1 µM (MAK(h); 1000 nM) was -17%. For the same molecule, the inhibition at 0.01 µM (MRCKβ(h); 10 nM) was 18%, the inhibition at 0.1 µM (MRCKβ(h); 100 nM) was 8% and the inhibition at 1 µM (MRCKβ(h); 1000 nM) was 21%. It also gave an inhibition at 0.01 µM (PAR-1Bα(h); 10 nM) of -4%, an inhibition at 0.1 µM (PAR-1Bα(h); 100 nM) of -3% and an inhibition at 1 µM (PAR-1Bα(h); 1000 nM) of 2%. The inhibition at 0.01 µM (PI3KC2α(h); 10 nM) was -5%, the inhibition at 0.1 µM (PI3KC2α(h); 100 nM) was 1% and the inhibition at 1 µM (PI3KC2α(h); 1000 nM) was 1%. The inhibition at 0.01 µM (Ret(h); 10 nM) was 8%, the inhibition at 0.1 µM (Ret(h); 100 nM) was 27% and the inhibition at 1 µM (Ret(h); 1000 nM) was 80%. It also gave an inhibition at 0.01 µM (eEF-2K(h); 10 nM) of 4%, an inhibition at 0.1 µM (eEF-2K(h); 100 nM) of 2% and an inhibition at 1 µM (eEF-2K(h); 1000 nM) of 11%.
